According to patent publication US20200392107A1, “CYCLIC AMINE DERIVATIVE AND MEDICAL USE THEREOF” (Toray Industries, Inc., priority 2018, published 2020):

What was measured:
[1] = tested on: imiquimod-induced mouse psoriasis model; experiment: Imiquimod-induced mouse psoriasis model; type: in vivo; settings: 10 mg/kg orally once daily for 5 days (3 to 7 days after induction); BALB/c mice; vs vehicle, P<0.05
Description: Using increase in the ear thickness as an index of exacerbation of symptoms, the effect of the cyclic amine derivative (I) or a pharmacologically acceptable salt thereof in an imiquimod-induced mouse psoriasis model was evaluated. The imiquimod-induced mouse psoriasis model was prepared by a partially modified method by Schaper et al. (The Journal of Dermatological Science, 2013, Vol. 71, No. 1, p. 29-36).
BALB/c mice (male, 7 weeks old) (Charles River Laboratories Japan, Inc.) were used at 8 to 9 weeks old after preliminary breeding. To induce psoriasis-like symptoms, 5 mg each of BESELNA CREAM 5% was applied once daily to the outside of the right and left auricles of the mice for 8 days from the day of first administration of imiquimod (hereinafter referred to as induction day) to 7 days after induction (dose of imiquimod, 0.5 mg/body/day).
(§1) A test compound at a dose of 10 mg/kg was administered to the mice once daily for 5 days from 3 days after induction to 7 days after induction. As the test compound, the compound of Example 1, the compound of Example 4, and the compound of Example 9 were used. The compound of Example 1, the compound of Example 4, and the compound of Example 9 were respectively suspended in a 0.5 w/v % methylcellulose solution and orally administered. The group in which the compound of Example 1 was administered to mice was defined as the Example-1 compound administration group, the group in which the compound of Example 4 was administered was defined as the Example-4 compound administration group, and the group in which the compound of Example 9 was administered was defined as the Example-9 compound administration group. In the vehicle administration group, a vehicle of each test compound (0.5 w/v % methylcellulose solution) was similarly administered.
The right and left ear thickness before administration of imiquimod (before induction) on the induction day and the right and left ear thickness on the 8th day after induction were measured with a digital micrometer (Mitutoyo Corporation). […]

[2] = tested on: DNFB-induced mouse allergic dermatitis model; experiment: DNFB-induced mouse allergic dermatitis model; type: in vivo; settings: 10 mg/kg orally one hour before induction; BALB/c mice; vs vehicle, P<0.05
Description: Using increase in the ear swelling rate as an index of exacerbation of symptoms, the effect of the cyclic amine derivative (I) or a pharmacologically acceptable salt thereof in a DNFB-induced mouse allergic dermatitis model was evaluated. The DNFB-induced mouse allergic dermatitis model was prepared by a partially modified method by Curzytek et al. (Pharmacological Reports, 2013, Vol. 65, p. 1237-1246).
BALB/c mice (female, 6 weeks old) (Charles River Laboratories Japan, Inc.) were used at 8 weeks old after preliminary breeding. To the back of the mice, 25 μL of a 0.5 v/v % DNFB solution dissolved in acetone:olive oil (4:1) was applied. The next day, the same operation was repeated to sensitize the mice. Four days after the sensitization, 10 μL each of a 0.2 v/v % DNFB solution dissolved in acetone:olive oil (4:1) was applied to both sides of the right auricle of the sensitized mice to induce inflammation.
as §1, with “One hour before induction, a test” for “A test”, “the mice.” for “the mice once daily for 5 days from 3 days after induction to 7 days after induction.”, “group. […]” for “group. In the vehicle administration group, a vehicle of each test compound (0.5 w/v % methylcellulose solution) was similarly administered.”
The right ear thickness before application of the DNFB solution (before induction) on the induction day and the right ear thickness at the 24th hour after induction were measured with a digital micrometer (Mitutoyo Corporation). The swelling rate of the auricle was calculated by Formula (3) and used as an index of the drug efficacy evaluation: […]

Structure (SMILES)	increase in the ear thickness (change in the ear thickness, 8th day after induction) [1]	increase in the ear swelling rate (24th hour after induction) [2]
CC(=O)N1CCCC[C@@H]1C(=O)Nc1cc(Cl)c2c(c1)CCN2C[C@H]1CC[C@H](C(F)(F)F)CC1 [Example 9, (R)-1-acetyl-N-(7-chloro-1-((trans-4-(trifluoromethyl)cyclo-hexyl)methyl)indolin-5-yl)piperidine-2-carboxamide]	statistically significantly suppressed	statistically significantly suppressed
CC(=O)N1CCCC[C@@H]1C(=O)Nc1cc(Cl)c2c(c1)CCN2Cc1ccc(C(F)(F)F)cc1 [Example 4, (R)-1-acetyl-N-(7-chloro-1-(4-(trifluoromethyl)benzyl)indolin-5-yl)piperidine-2-carboxamide]	statistically significantly suppressed	statistically significantly suppressed
CC(=O)N1CCCC[C@@H]1C(=O)Nc1cc(Cl)c2c(c1)CCCN2Cc1ccc(C(F)(F)F)cc1 [Example 1, (R)-1-acetyl-N-(8-chloro-1-(4-(trifluoromethyl)benzyl)-1,2,3,4-tetrahydroquinolin-6-yl)piperidine-2-carboxamide]	statistically significantly suppressed	statistically significantly suppressed
